# Laboratory results taken from patent US9956199B2, “Chromane-like cyclic prenylflavonoids for the medical intervention in neurological disorders” (priority 2011, dated 2018).
# “Also recorded” adds a separate entry of the source.
# How the values were obtained:
# [1] = tested on: chicken dorsal root ganglion neurons; assay: neurite outgrowth in primary chicken dorsal root ganglion neurons; assay type: cell-based; conditions: E8 and E15 DRG neurons, 12 to 24 hours; compound 1a 10 μM, NGF 20 ng/ml; GAP-43 staining
# Procedure: Dorsal root ganglion neurons comprise of an axon with two branches and are a good model for neuronal differentiation. Embryonic day 8 and 15 chicken dorsal root ganglions were examined for immunochemical staining with GAP43 after incubation with NGF 20 ng/ml and compound 1a (ENDF1) 10 μM to analyze whether compound 1a alone or in combination with the nerve growth factor enhances neurite outgrowth and branching.
# Embryonic day (E) 8 and E15 chicken Dorsal Root Ganglions (DRGs) were prepared as described in: Aigner, 1993; Aigner, 1995. Briefly, foetuses were taken out of the egg, decapitated and the DRGs were targeted from the ventral side. The 10 lumbar region DRGs per foetus were dissected, and a total of 100 DRGs were collected in 10 ml DPBS in a 15 ml Falcon tube. DRGs were centrifuged 120×g for 3 min and then enzymatically treated with 1 ml trypsin 0.5 mg/ml+EDTA 0.22 mg/ml (PAA, Pasching, Austria) for 15 min. Then, 9 ml of DMEM 10% FCS were added to inactivate the trypsin and DRGs were centrifuged 120×g for 5 min. DRGs were resuspended and washed with 5 ml of DMEM 10% FCS, pipetted up and down to dissociate them, centrifuged, resuspended in 5 ml of DMEM 10% FCS and transferred into a 60 mm diameter cell culture dish. […]
# [2] = tested on: PC12 cells; assay: PC12 cobalt-chloride stress test, Caspase 3/7 activation; assay type: cell-based, rat; conditions: CoCl2 300 μM, 24 hours; compounds 10 μM, NGF 50 ng/ml; FIG. 7A
# Procedure: (§1) For the neuroprotection assay PC12 cells were stressed with cobalt chloride 300 μM for 24 hours and the activity of Caspase 3/7 and LDH release were measured. NGF 50 ng/ml was used as a positive control for Caspase 3/7 activity and NGF 100 ng/ml was used as a positive control for LDH release.
# (§2) For the PC12-CoCl2-Assay PC12 cells were used (ATCC: CRL-1721 ™). These cells were growing in RPMI supplemented with 10% Horse Serum (heat inactivated) (Sigma Aldrich, Taufkirchen, Germany), 5% Fetal Bovine Serum (Lonza, Wuppertal, Germany), 2.5% Penicillin/Streptomycin and Glutamine (PAA, Pasching, Austria) as adherent cultures when the plates are coated with Poly-L-ornithine ([…] in water) for at least one hour at 37° C. For passaging PC12-cells were resuspended with Accutase (PAA, Pasching, Austria) for 10 minutes at 37° C. once a week.
# (§3) For all experiments cells were plated (quadruplicates) on Poly-L-ornithine-coated 96-well plates at a density of 10^4 cells per well. For Caspase 3/7-measurement cells were seeded in a white 96-well-plate to detect luminescence. As positive-control for neuroprotection Nerve Growth Factor (NGF) (50 ng/ml and 100 ng/ml) was used. To induce hypoxia CoCl2 (300 μM) was added to the cells after 20-24 hours. The control-treatment was compound 1a (ENDF1), compound 1b (ENDF3), compound 3a (ENDF2), ENDF4 or Osajin in the concentrations 1 μM and 10 μM in proliferation-media without CoCl2.
# For Caspase 3/7-activation Caspase 3/7 substrate was added to the cells in an equal amount 22 hours after stimulation. Plates are incubated for 2 hours at room temperature in the dark, luminescence was measured 24 hours after stimulation and the blank-values are subtracted.
# [3] = tested on: PC12 cells; assay: PC12 cobalt-chloride stress test, LDH release; assay type: cell-based, rat; conditions: CoCl2 300 μM, 24 hours; compounds 10 μM, NGF 100 ng/ml; FIG. 7B
# Procedure: as §1, §2, §3
# For LDH-release cells were centrifuged at 1050 rpm for 5 minutes. After 24 hours of stimulation, the supernatant was mixed in an equal amount with LDH-substrate and incubated in the dark for 30 minutes. Afterwards stop solution was added and absorbance was measured at 490 nm, the blank-values are subtracted.
substance,measurement,setting,value
"NGF: Nerve Growth Factor, positive control for neuroprotection and neurite outgrowth",neurite extension,[1],strongly promote neurite extension; also recorded: potent enhancer of neuronal differentiation
same,protection from CoCl2 induced Caspase 3/7 activity,[2],partially protected; also recorded: inhibits CoCl2 induced Caspase 3/7 activity
same,protection from CoCl2 induced LDH release (cell death),[3],partially protected; also recorded: slightly decrease the LDH release
